Measured values published in patent US5622948A, “Pyrrole pyridazine and pyridazinone anti-inflammatory agents” (Syntex (U.S.A.) Inc., priority 1994, dated 1997).

Columns and labels:
COX I = COX I (Homo sapiens, UniProt P23219); experiment: radiometric assay, COX I inhibition (human recombinant, baculovirus expressed, partially purified); format: biochemical; parameters: A 2 Kb fragment containing the coding region of COX I; made in house; host or cells: Sf9 insect cells, baculovirus (cDNA from Oxford Biomedical Research); conditions: radiometric assay, human recombinant baculovirus expressed enzyme; read-out: COX I IC50 (Table 2)
Method: (§1) Human prostaglandin G/H synthase I and II ("COX I" and "COX II") were expressed in the baculovirus expression system and purified to high levels.
(§2) As described above, human recombinant COX I and COX II were cloned and expressed in a baculovirus system. Partially purified COX I and COX II enzymes were used for screening compounds for their ability to inhibit COX I and COX II activity, as described below.
(§3) Compound (16), in 2 μl DMSO, and control samples (carrier vehicles only) were mixed with COX I or COX II samples (e.g. fractions from the chromatography columns) in polypropylene tubes and preincubated with 2 mM phenol for 5 minutes and then with 1 μM hematin for an additional 5 minutes. The 150 μl reaction mixture consisted of 50 mM Tris --HCl, pH 7.9, 2 mM EDTA, 10% glycerol, 200 μM phenol, 1 μM hematin, 1-25 μl sample and 20 μM 1-[^14 C] arachidonate (80.000-100.000 cpm/tube). After 45 seconds at room temperature, the reaction was terminated by adding 200 μl of 2N HCl and 750 μl water. An aliquot (950 μl) of the reaction mixture was loaded onto a 1 ml C~ Sep-Pak (J. T. Baker, Phillipsburg, N.J.) which had been previously washed with 2-3 ml methanol and equilibrated with 5-6 ml distilled water. Oxygenated products were quantitatively eluted with 3 ml of acetonitrile, H2 O and acetic acid (50:50:0.1, v/v) and the radioactivity in the eluate determined in a scintillation counter.
(§4) Human recombinant 10 min incubation with Compound (16)
(§5) baculovirus 45 sec incubation with 20 μM AA
(§6) partially purified Separation of radioactive products

COX II = target: T1, COX II (Homo sapiens, UniProt P35354); experiment: radiometric assay, COX II inhibition (human recombinant, baculovirus expressed, partially purified); format: biochemical; parameters: A 1.8 Kb DNA fragment containing the coding region of human COX II was generated by PCR; made in house; host or cells: Sf9 insect cells, baculovirus; conditions: radiometric assay, human recombinant baculovirus expressed enzyme; read-out: COX II IC50 (Table 2)
T1 sequence (P35354 18-604): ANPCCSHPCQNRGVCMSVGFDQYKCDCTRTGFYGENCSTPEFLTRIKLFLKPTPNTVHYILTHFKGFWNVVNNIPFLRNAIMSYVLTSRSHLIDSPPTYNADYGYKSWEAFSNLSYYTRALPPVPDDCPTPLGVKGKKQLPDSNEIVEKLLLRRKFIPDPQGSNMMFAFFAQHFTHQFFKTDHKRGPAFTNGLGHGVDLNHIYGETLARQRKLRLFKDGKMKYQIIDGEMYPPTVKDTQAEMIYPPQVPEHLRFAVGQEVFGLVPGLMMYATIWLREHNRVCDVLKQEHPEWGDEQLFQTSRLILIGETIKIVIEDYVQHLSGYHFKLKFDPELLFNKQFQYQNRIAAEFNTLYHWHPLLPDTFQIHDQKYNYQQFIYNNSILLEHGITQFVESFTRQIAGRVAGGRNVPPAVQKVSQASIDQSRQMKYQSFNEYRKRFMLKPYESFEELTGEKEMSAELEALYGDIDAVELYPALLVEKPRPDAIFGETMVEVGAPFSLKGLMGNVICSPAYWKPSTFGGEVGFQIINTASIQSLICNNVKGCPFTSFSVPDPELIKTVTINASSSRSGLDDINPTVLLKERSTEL
Method: as §1, §2, §3, §4, §5, §6

COX I, sequence (P23219 24-599): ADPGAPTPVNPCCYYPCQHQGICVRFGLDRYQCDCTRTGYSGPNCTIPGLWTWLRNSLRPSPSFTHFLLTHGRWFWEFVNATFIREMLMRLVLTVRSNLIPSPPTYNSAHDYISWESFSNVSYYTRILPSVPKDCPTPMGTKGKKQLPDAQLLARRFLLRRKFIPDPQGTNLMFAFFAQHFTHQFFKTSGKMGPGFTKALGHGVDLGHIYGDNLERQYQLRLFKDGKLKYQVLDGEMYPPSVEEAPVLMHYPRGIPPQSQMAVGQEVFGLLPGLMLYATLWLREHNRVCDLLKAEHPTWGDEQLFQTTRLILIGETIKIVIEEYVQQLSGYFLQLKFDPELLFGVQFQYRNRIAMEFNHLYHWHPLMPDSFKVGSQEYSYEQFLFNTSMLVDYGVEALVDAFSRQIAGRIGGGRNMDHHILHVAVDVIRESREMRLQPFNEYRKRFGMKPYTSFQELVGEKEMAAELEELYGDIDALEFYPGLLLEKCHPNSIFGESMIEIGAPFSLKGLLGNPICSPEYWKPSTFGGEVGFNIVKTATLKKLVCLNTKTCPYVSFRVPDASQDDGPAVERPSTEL

SMILES	IC50 (COX I) [µM]	IC50 (COX II) [µM]
Cc1c(Br)c(Cc2ccc(=O)[nH]n2)n(C)c1C(=O)c1ccc(Cl)cc1 [Compound 25, 6-[3-bromo-5-(4-chloro-benzoyl)-1,4-dimethyl-1H-pyrrol-2-ylmethyl]-2H-pyridazin-3-one]	277	1.8
COc1ccc(C(=O)c2c(Cl)cc(Cc3ccc(=O)[nH]n3)n2C)cc1 [Compound 82, 6-[4-chloro-5-(4-methoxy-benzoyl)-1-methyl-1H-pyrrol-2-ylmethyl]-2H-pyridazin-3-one]	20.6	0.81
Cc1cccc(C)c1Cn1nc(Cc2cc(C)c(C(=O)c3ccc(Cl)cc3)n2C)ccc1=O [Compound 151, 6-[5-(4-chloro-benzoyl)-1,4,-dimethyl-1H-pyrrol-2-ylmethyl]-2-(2,6-dimethylbenzyl)-2H-pyridazin-3-one]	3.8	< 0.1
Cc1cc(Cc2ccc(=O)[nH]n2)n(C)c1C(=O)c1ccc(Br)cc1 [Compound 35, 6-[5-(4-bromo-benzoyl)-1,4-dimethyl-1H-pyrrol-2-ylmethyl]-2H-pyridazin-3-one]	86	0.1
CCc1ccc(C(=O)c2ccc(Cc3ccc(=O)[nH]n3)n2C)cc1 [Compound 46, 6-[5-(4-ethyl-benzoyl)-1-methyl-1H-pyrrol-2-ylmethyl]-2H-pyridazin-3-one]	> 100	7.2
Cc1ccc(C(=O)c2cc(Cl)c(Cc3ccc(=O)[nH]n3)n2C)cc1 [Compound 87, 6-[3-chloro-1-methyl-5-(4-methyl-benzoyl)-1H-pyrrol-2-ylmethyl]-2H-pyridazin-3-one]	> 1000	0.9
Cc1cc(Cc2ccc(=O)n(CCNS(C)(=O)=O)n2)n(C)c1C(=O)c1ccc(Cl)cc1 [Compound 136, N-(2-{3-[5-(4-chloro-benzoyl)-1,4,-dimethyl-1H-pyrrol-2-ylmethyl]-6-oxo-6H-pyridazin-1-yl}-ethyl)-methanesulfonamide]	829	3.06
Cc1cc(Cc2ccc(=O)n(Cc3ccc(F)cc3)n2)n(C)c1C(=O)c1ccc(Cl)cc1 [Compound 129, 6-[5-(4-chloro-benzoyl)-1,4,-dimethyl-1H-pyrrol-2-ylmethyl]-2-(4-fluorobenzyl)-2H-pyridazin-3-one]	3.4	0.067
C=Cc1ccc(C(=O)c2ccc(Cc3ccc(=O)[nH]n3)n2C)cc1 [Compound 54, 6-[1-methyl-5-(4-vinyl-benzoyl)-1H-pyrrol-2-ylmethyl]-2H-pyridazin-3-one]	190	0.44
C=CCn1nc(Cc2cc(C)c(C(=O)c3ccc(Cl)cc3)n2C)ccc1=O [Compound 127, 2-allyl-6-[5-(4-chloro-benzoyl)-1,4-dimethyl-1H-pyrrol-2-ylmethyl]-2H-pyridazin-3one]	57	0.67
C=Cc1ccc(C(=O)c2c(C)cc(Cc3ccc(=O)[nH]n3)n2C)cc1 [Compound 33, 6-[1,4-dimethyl-5-(4-vinyl-benzoyl)-1H-pyrrol-2-ylmethyl]-2H-pyridazin-3-one]	31.7	0.44
Cc1cc(Cc2ccc(=O)n(CO)n2)n(C)c1C(=O)c1ccc(Cl)cc1 [Compound 153, 6-[5-(4-chloro-benzoyl)-1,4,-dimethyl-1H-pyrrol-2-ylmethyl]-2-(hydroxy-methyl)-2H-pyridazin-3-one]	> 100	0.54
Cn1c(Cc2ccc(=O)[nH]n2)ccc1C(=O)c1ccc(Br)cc1 [Compound 57, 6-[5-(4-bromo-benzoyl)-1-methyl-1H-pyrrol-2-ylmethyl]-2H-pyridazin-3-one]	700	4.6
Cc1cc(Cc2ccc(=O)n(CCO)n2)n(C)c1C(=O)c1ccc(Cl)cc1 [Compound 118, 6-[5-(4-chloro-benzoyl)-1,4,-dimethyl-1H-pyrrol-2-ylmethyl]-2-(2-hydroxy-ethyl)-2H-pyridazin-3-one]	76	0.8
Cc1ccc(C(=O)c2ccc(Cc3ccc(=O)[nH]n3)n2C)cc1 [Compound 100, 6-[1-methyl-5-(4-methyl-benzoyl)-1H-pyrrol-2-ylmethyl]-2H-pyridazin-3-one]	300	1.5
CC[C@@H](C)NC(=O)Cn1nc(Cc2cc(C)c(C(=O)c3ccc(Cl)cc3)n2C)ccc1=O [Compound 158, R--N-sec-butyl-2-{3-[5-(4-chloro-benzoyl)-1,4,-dimethyl-1H-pyrrol-2-ylmethyl]-6-oxo-6H-pyridazin-1-yl}-acetamide]	3.2	0.68
CC(=O)OCn1nc(Cc2cc(C)c(C(=O)c3ccc(Cl)cc3)n2C)ccc1=O [Compound 161, acetic acid 2-{3-[5-(4-chloro-benzoyl)-1,4,-dimethyl-1H-pyrrol-2-ylmethyl]-6-oxo-6H-pyridazin-1-yl}-methyl ester]	64.7	0.61
Cc1cc(Cc2ccc(=O)n(CCCO)n2)n(C)c1C(=O)c1ccc(Cl)cc1 [Compound 140, 6-[5-(4-chloro-benzoyl)-1,4,-dimethyl-1H-pyrrol-2-ylmethyl]-2-(3-hydroxy-1-propyl)-2H-pyridazin-3-one]	48	0.53
Cc1cc(Cc2ccc(=O)[nH]n2)n(C)c1C(=O)c1ccccc1 [Compound 32, 6-[5-benzoyl-1,4-dimethyl-1H-pyrrol-2-ylmethyl]-2H-pyridazin-3-one]	26.7	1.5
Cc1cc(Cc2ccc(=O)n(Cc3ccccc3)n2)n(C)c1C(=O)c1ccc(Cl)cc1 [Compound 121, 2-benzyl-6-[5-(4-chloro-benzoyl)-1,4,-dimethyl-1H-pyrrol-2-ylmethyl]-2H-pyridazin-3-one]	6.3	0.23
Cc1cc(Cc2ccc(=O)n(CC#N)n2)n(C)c1C(=O)c1ccc(Cl)cc1 [Compound 122, 6-[5-(4-chloro-benzoyl)-1,4,-dimethyl-1H-pyrrol-2-ylmethyl]-2-(cyano-methyl)-2H-pyridazin-3-one]	0.074	0.063
COc1ccc(C(=O)c2cc(Cl)c(Cc3ccc(=O)[nH]n3)n2C)cc1 [Compound 88, 6-[3-chloro-5-(4-methoxy-benzoyl)-1-methyl-1H-pyrrol-2-ylmethyl]-2H-pyridazin-3-one]	100	0.55
CCc1ccc(C(=O)c2c(C)cc(Cc3ccc(=O)[nH]n3)n2C)cc1 [Compound 36, 6-[1,4-dimethyl-5-(4-ethyl-benzoyl)-1H-pyrrol-2-ylmethyl]-2H-pyridazin-3-one]	38	0.4
Cn1c(Cc2ccc(=O)[nH]n2)ccc1C(=O)c1cccs1 [Compound 62, 6-[1-methyl-5-(thienyl-2-carbonyl)-1H-pyrrol-2-ylmethyl]-2H-pyridazin-3-one]	140	7
COc1ccc(Cn2nc(Cc3cc(C)c(C(=O)c4ccc(Cl)cc4)n3C)ccc2=O)cc1 [Compound 168, 6-[5-(4-chloro-benzoyl)-1,4,-dimethyl-1H-pyrrol-2-ylmethyl]-2-(4-methoxybenzyl)-2H-pyridazin-3-one]	7.9	0.91
Cc1c(Cl)c(Cc2ccc(=O)[nH]n2)n(C)c1C(=O)c1ccc(Cl)cc1 [Compound 24, 6-[3-chloro-5-(4-chloro-benzoyl)-1,4-dimethyl-1H-pyrrol-2-ylmethyl]-2H-pyridazin-3-one]	440	0.7
CC[C@H](C)NC(=O)Cn1nc(Cc2cc(C)c(C(=O)c3ccc(Cl)cc3)n2C)ccc1=O [Compound 157, S--N-sec-butyl-2-{3-[5-(4-chloro-benzoyl)-1,4,-dimethyl-1H-pyrrol-2-ylmethyl]-6-oxo-6H-pyridazin-1-yl}-acetamide]	24.4	1.63
